Values quoted from earlier work as cited in patent US20210319872A1, “DRUG AND DEVICE COMBINATION PRODUCTS WITH IMPROVED SAFETY AND EFFICACY PROFILES” (priority 2016, published 2021).
Read-outs that look alike come from different tables or passages of the source. Blank lines part the entries; values can stand above or below the compound they belong to.

Compound: CNCC[C@@H](Oc1ccccc1C)c1ccccc1 [Atomoxetine (Strattera)]
Constipation (in vivo): 18%), Constipation (adult, 8%; pediatric, 1% to 2%), Decrease in
Decrease in appetite (in vivo): appetite (adult, 16%; pediatric, 16%), Nausea (adult, 26%;
Delay when starting to pass urine (in vivo): Renal: Delay when starting to pass urine (adult, 6%)
Dysmenorrhea (in vivo): Reproductive: Dysmenorrhea (adult, 3%), Erectile dysfunction
Erectile dysfunction (in vivo): (adult, 8%)
Headache (in vivo): Neurologic: Headache (pediatric, 19%), Insomnia (adult, 15%;
Increased systolic arterial pressure (in vivo): pressure (adult, 4.2% to 12.4%; pediatric, 4.9% to 12.5%),
Menopausal flushing (in vivo): Other: Menopausal flushing (adult, 3%)
Priapism (in vivo): Reproductive: Priapism (rare)
Seizure (in vivo): 0.1%; pediatric, 0.2%)
Serious side effect, Cardiovascular (in vivo): Cardiovascular: Myocardial infarction, Sudden cardiac death
Serious side effect, Hepatic (in vivo): Hepatic: Injury of liver (Severe), Liver failure
Serious side effect, Neurologic (in vivo): Neurologic: Cerebrovascular accident, Dyskinesia, Seizure (adult,
Serious side effect, Psychiatric (in vivo): Psychiatric: Mania, Psychotic disorder, Suicidal thoughts
Somnolence (in vivo): pediatric, at least 2%), Somnolence (adult, 8%; pediatric, 11%)
Suicidal thoughts (in vivo): (pediatric, 0.4%)
Tachycardia (in vivo): Tachycardia (adult, 1.5% to 22.4%; pediatric, 0.3% to 23.4%)
Vomiting (in vivo): pediatric, 7% to 13%), Vomiting (adult, 4%; pediatric, 11%),
Weight decreased (in vivo): Endocrine metabolic: Weight decreased (adults, 2%; pediatric, 3%
Xerostomia (in vivo): Xerostomia (adult, 20%)

Compound: O=[N+]([O-])OCC(CO[N+](=O)[O-])O[N+](=O)[O-] [Nitrates (Nitroglycerin)]
Common side effect listed (incidence not given) (in vivo): Dermatologic: Flushing
Dizziness (incidence) (in vivo): Neurologic: Dizziness (5%), Headache (63% to 64%),
Headache (incidence) (in vivo): Neurologic: Dizziness (5%), Headache (63% to 64%),
Hypotension (incidence) (in vivo): Cardiovascular: Hypotension (4%)
Lightheadedness (incidence) (in vivo): Lightheadedness (6%)

Compound: NS(=O)(=O)c1cc(C2(O)NC(=O)c3ccccc32)ccc1Cl (stereo not shown) [Chlorthalidone (Hygroton)]
Common side effect listed (incidence not given) (in vivo): Endocrine metabolic: Hyperuricemia

Compound: CCCc1nc2c(C)cc(-c3nc4ccccc4n3C)cc2n1Cc1ccc(-c2ccccc2C(=O)O)cc1 [Telmisartan (Micardis))]
Cough (in vivo): Respiratory: Cough (1.6% to 15.6%), Upper respiratory infection
Serious side effects, listed without incidence or only as rare (in vivo): Musculoskeletal: Rhabdomyolysis (rare)
Upper respiratory infection (in vivo): (7%)

Compound: COC(=O)C1=C(C)NC(C)=C(C(=O)OC)C1c1ccccc1[N+](=O)[O-] [Nifedipine (Adalat, Procardia)]
Dizziness (in vivo): Neurologic: Dizziness (4% to 10%), Headache (19% to 23%)
Flushing (in vivo): Dermatologic: Flushing (4% to 25%)
Headache (in vivo): Neurologic: Dizziness (4% to 10%), Headache (19% to 23%)
Hypotension (in vivo): Cardiovascular: Hypotension (up to 5%), Palpitations (up to 7%),
Myocardial infarction (in vivo): Cardiovascular: Myocardial infarction (up to 4%), Ventricular
Nausea (in vivo): Gastrointestinal: Nausea (up to 10%)
Palpitations (in vivo): Cardiovascular: Hypotension (up to 5%), Palpitations (up to 7%),
Peripheral edema (in vivo): Peripheral edema (7% to 29%)
Ventricular arrhythmia (in vivo): arrhythmia (less than 0.5%)

Ventricular tachycardia (in vivo): ≤ 12.4%)
Compound: CN(CCOc1ccc(NS(C)(=O)=O)cc1)CCc1ccc(NS(C)(=O)=O)cc1 [Tikosyn]
Chest pain (in vivo): Cardiovascular: Chest pain (10%)
Dizziness (in vivo): Neurologic: Dizziness (8%), Headache (11%)
Headache (in vivo): Neurologic: Dizziness (8%), Headache (11%)
Heart block (in vivo): Cardiovascular: Heart block (up to 1.2%), Prolonged QT interval,
Torsades de pointes (in vivo): Torsades de pointes (0.8%), Ventricular arrhythmia (up to 14.5%),
Ventricular arrhythmia (in vivo): Torsades de pointes (0.8%), Ventricular arrhythmia (up to 14.5%),
Serious side effect, Cardiovascular (listed without frequency): Cardiovascular: Heart block (up to 1.2%), Prolonged QT interval,

Compound: CCCCC(=O)N(Cc1ccc(-c2ccccc2-c2nnn[nH]2)cc1)[C@H](C(=O)O)C(C)C [Valsartan (Diovan)]
Common side effects, listed without incidence (in vivo): Respiratory: Cough
Dizziness (in vivo): Neurologic: Dizziness (2% to 17%), Headache (greater than 1%)
Headache (in vivo): Neurologic: Dizziness (2% to 17%), Headache (greater than 1%)
Hypotension (in vivo): Cardiovascular: Hypotension (5.5% to 6.9%)
Serum blood urea nitrogen raised (in vivo): Renal: Serum blood urea nitrogen raised (heart failure, 16.6%),

Compound: CC(CCc1ccccc1)NCC(O)c1ccc(O)c(C(N)=O)c1.Cl (stereo not shown)
Dizziness (in vivo): Neurologic: Dizziness (9% to 20%)
Fatigue (in vivo): Other: Fatigue (11%)
Has tingling sensation (in vivo): Dermatologic: Has tingling sensation (7%.)
Nasal congestion (in vivo): Respiratory: Nasal congestion (3%)
Nausea (in vivo): Gastrointestinal: Nausea (14%)
Orthostatic hypotension (in vivo, iv): Cardiovascular: Orthostatic hypotension (1%, oral; 58%, IV)
Orthostatic hypotension (in vivo, po): Cardiovascular: Orthostatic hypotension (1%, oral; 58%, IV)

Compound: CCCN[C@H]1CCc2nc(N)sc2C1 [Pramipexole (Mirapex)]
Amnesia (in vivo): Neurologic: Amnesia (4% to 6%), Asthenia (Immediate-release,
Asthenia (in vivo): 10% to 14%; extended-release, 3%), Confusion (4% to 10%),
Confusion (in vivo): 10% to 14%; extended-release, 3%), Confusion (4% to 10%),
Dizziness (in vivo): Dizziness (Immediate-release, 3% to 26%; extended-release, 2% to
Dream disorder (in vivo): ≤ 12%), Dream disorder (Up to 11%), Dyskinesia (Immediate-
Dyskinesia (in vivo): release, 18% to 47%; extended-release, 17%), Extrapyramidal
Extrapyramidal movements (in vivo): movements (28%), Headache (Immediate-release, 4% to 16%;
Hallucinations (in vivo): Psychiatric: Hallucinations (5% to 17%)
Sleep attack (in vivo): Neurologic: Sleep attack (2% to 6%), Somnolence (Immediate-
Somnolence (in vivo): release, 6% to 33%; extended-release, 15% to 36%)

Compound: CCCN(CCC)CCc1cccc2c1CC(=O)N2 [Ropinirole (Requip)]
Abdominal pain (in vivo): Gastrointestinal: Abdominal pain (6% to 7%), Constipation (4% to
Constipation (in vivo): Gastrointestinal: Abdominal pain (6% to 7%), Constipation (4% to
Dyskinesia (in vivo): syndrome, 11%), Dyskinesia (13% to 34%), Headache (6%),
Fatigue (in vivo): Other: Fatigue (8% to 11%)
Hallucinations (in vivo): Psychiatric: Hallucinations (5% to 10%)
Headache (in vivo): syndrome, 11%), Dyskinesia (13% to 34%), Headache (6%),
Hypotension (in vivo): Cardiovascular: Hypotension (2% to 25%), Orthostatic hypotension
Nausea (in vivo): 5%), Nausea (11% to 60%), Vomiting (7% to 12%)
Orthostatic hypotension (in vivo): (Up to 23%)
Syncope (in vivo): disease, 1% to 12%; restless leg syndrome, 1%)
Vomiting (in vivo): 5%), Nausea (11% to 60%), Vomiting (7% to 12%)

Compound: CN(C)CCCC1(c2ccc(F)cc2)OCc2cc(C#N)ccc21 (stereo not shown) [Citalopram (Celexa)]
Agitation (in vivo): Psychiatric: Agitation (3% to 10%)
Cerebrovascular accident (in vivo): Neurologic: Cerebrovascular accident (0.1% to less than 1%)
Constipation (in vivo): Gastrointestinal: Constipation (13%), Diarrhea (8%), Nausea (20%
Diaphoresis (in vivo): Dermatologic: Diaphoresis (5% to 18%)
Diarrhea (in vivo): Gastrointestinal: Constipation (13%), Diarrhea (8%), Nausea (20%
Disorder of ejaculation (in vivo): Reproductive: Disorder of ejaculation (6.1%)
Dizziness (in vivo): Neurologic: Dizziness (14%), Headache (18%), Insomnia (15%),
Fatigue (in vivo): Other: Fatigue (5%)
Headache (in vivo): Neurologic: Dizziness (14%), Headache (18%), Insomnia (15%),
Insomnia (in vivo): Neurologic: Dizziness (14%), Headache (18%), Insomnia (15%),
Myocardial infarction (in vivo): Cardiovascular: Myocardial infarction (0.1% to 1%), Prolonged QT
Nausea (in vivo): Gastrointestinal: Constipation (13%), Diarrhea (8%), Nausea (20%
Prolonged QT interval (in vivo): interval (0.5% to 1.9%), Torsades de pointes
Sedated (in vivo): Sedated (15%), Somnolence (18%), Tremor (8% to 16%)
Somnolence (in vivo): Sedated (15%), Somnolence (18%), Tremor (8% to 16%)
Tremor (in vivo): Sedated (15%), Somnolence (18%), Tremor (8% to 16%)
Vomiting (in vivo): to 21%), Vomiting (4% to 20%), Xerostomia (17% to 20%)
Xerostomia (in vivo): to 21%), Vomiting (4% to 20%), Xerostomia (17% to 20%)

Hypoglycemia (combination therapy): combination therapy, 22.9%)
Nasopharyngitis (in vivo): Respiratory: Nasopharyngitis (7%)
Compound: CC#CCn1c(N2CCC[C@@H](N)C2)nc2c1c(=O)n(Cc1nc(C)c3ccccc3n1)c(=O)n2C [Tradjenta]
Hypoglycemia (monotherapy): Endocrine metabolic: Hypoglycemia (monotherapy, 6.6%;

Compound: Fc1ccc([C@@H]2CCNC[C@H]2COc2ccc3c(c2)OCO3)cc1 [Paroxetine (Paxil)]
Abnormal ejaculation (in vivo): Reproductive: Abnormal ejaculation (13% to 28%), Erectile
Asthenia (in vivo): Neurologic: Asthenia (up to 22%), Dizziness (6% to 14%),
Constipation (in vivo): Gastrointestinal: Constipation (up to 16%), Diarrhea (up to 18%),
Diaphoresis (in vivo): Dermatologic: Diaphoresis (5% to 14%)
Diarrhea (in vivo): Gastrointestinal: Constipation (up to 16%), Diarrhea (up to 18%),
Dizziness (in vivo): Neurologic: Asthenia (up to 22%), Dizziness (6% to 14%),
Erectile dysfunction (in vivo): dysfunction (2% to 9%), Orgasm disorder (females; 2% to 9%),
Headache (in vivo): Headache (17% to 27%), Insomnia (up to 24%), Somnolence (up to
Nausea (in vivo): Loss of appetite (up to 9%), Nausea (up to 26%), Xerostomia (9%
Orgasm disorder (in vivo): dysfunction (2% to 9%), Orgasm disorder (females; 2% to 9%),
Palpitations (in vivo): Cardiovascular: Palpitations (up to 3%), Vasodilatation (2% to 4%)
Reduced libido (in vivo): Reduced libido (males: 6% to 15%; females: 0% to 9%)
Seizure (in vivo): Neurologic: Seizure (0.1%)
Somnolence (in vivo): ≤ 24%), Tremor (4% to 11%)
Tremor (in vivo): 24%), Tremor (4% to 11%)
Vasodilatation (in vivo): Cardiovascular: Palpitations (up to 3%), Vasodilatation (2% to 4%)
Xerostomia (in vivo): Loss of appetite (up to 9%), Nausea (up to 26%), Xerostomia (9%
Yawning (in vivo): Respiratory: Yawning (4%)

Compound: CNCC[C@H](Oc1cccc2ccccc12)c1cccs1 [Duloxetine (Cymbalta)]
Constipation (in vivo): Gastrointestinal: Constipation (9% to 10%), Decrease in appetite
Diaphoresis (in vivo): Dermatologic: Diaphoresis (Adult, 6%; pediatric, less than 2%)
Diarrhea (in vivo): (6% to 10%), Diarrhea (Adult, 9%; pediatric, 6%), Nausea (18% to
Dizziness (in vivo): Neurologic: Asthenia, Dizziness (Adult, 9%; pediatric, 8%),
Headache (in vivo): Headache (Adult, 13% to 14%; pediatric, 18%), Hypersomnia,
Hypertension (in vivo): Cardiovascular: Hypertension (2%)
Insomnia (in vivo): Insomnia (7% to 10%), Sedated, Somnolence
Myocardial infarction (in vivo): Cardiovascular: Hypertensive crisis, Myocardial infarction (0.01%
Xerostomia (in vivo): 23%), Xerostomia (Adult, 11% to 14%; pediatric, 2%)
